From US20220281876A1, “DEGRADATION OF BRUTON'S TYROSINE KINASE (BTK) BY CONJUGATION OF BTK INHIBITORS WITH E3 LIGASE LIGAND AND METHODS OF USE” (BEIGENE, LTD., priority 2019, published 2022)

Target: T1, BTK (Homo sapiens, UniProt Q06187)
T1 construct: endogenous in cells; host or cells: Ramos cells
Assay: BTK cell degradation in Ramos cells (total BTK ELISA)
Assay type: cell-based
Conditions: 16 h incubation, FastScan total BTK ELISA
Method: Ramos cells are treated with compounds diluted in 0.1% DMSO, dilution is done according to the following protocol: (1) make 1000x stock solution in DMSO from 10 mM by 5-fold dilution, total 7 doses were included; (2) make 10x solution in cell culture medium by transferring 1 ul 1000x stock solution into 99 ul medium; (3) 11 ul of 10× solution is added to cells and incubate for 16 h.
Cells in 96 well plate are harvested by centrifugation (1200 rpm), and wash once with ice-cold PBS. Then, 100 ul 1×cell extraction buffer is added in each well. The cells are placed on a shaker for 20 min at 4° C.; 5 ul lysate is transferred to 45 ul of 1×cell extraction buffer in ELISA plate, and 50 ul of the antibody cocktail is added in each well; seal the plate and incubate 1 hour at room temperature on a plate shaker; medium is discarded from the plate, tap the plated on a paper towel, wash 3×200 ul ELISA wash buffer; add 100 ul of TMB to each well and incubate the plate in the dark for 15 min at room temperature on a shaker; add 100 ul of STOP solution to each well; read absorbance at 450 nm. The BTK ELISA assay was performed using FastScan total BTK ELISA kit (Cell Signaling Cat #36609).

T1 sequence (Q06187 whole entry): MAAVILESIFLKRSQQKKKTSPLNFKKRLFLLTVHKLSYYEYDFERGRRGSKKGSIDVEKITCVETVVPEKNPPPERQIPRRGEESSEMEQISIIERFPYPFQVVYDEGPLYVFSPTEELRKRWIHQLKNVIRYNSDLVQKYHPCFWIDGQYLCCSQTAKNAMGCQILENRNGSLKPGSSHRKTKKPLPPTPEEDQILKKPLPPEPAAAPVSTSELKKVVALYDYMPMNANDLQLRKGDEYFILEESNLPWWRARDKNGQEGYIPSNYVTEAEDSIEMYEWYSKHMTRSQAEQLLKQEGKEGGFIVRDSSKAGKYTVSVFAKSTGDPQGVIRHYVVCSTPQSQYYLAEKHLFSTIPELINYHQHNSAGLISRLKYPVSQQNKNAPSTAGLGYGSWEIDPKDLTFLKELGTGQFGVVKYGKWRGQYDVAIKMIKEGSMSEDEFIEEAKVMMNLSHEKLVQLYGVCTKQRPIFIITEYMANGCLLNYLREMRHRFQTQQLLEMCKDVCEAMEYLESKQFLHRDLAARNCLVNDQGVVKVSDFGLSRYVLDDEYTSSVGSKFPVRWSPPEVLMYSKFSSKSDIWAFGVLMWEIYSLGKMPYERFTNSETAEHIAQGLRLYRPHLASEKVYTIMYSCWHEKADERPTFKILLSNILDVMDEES

| Structure (SMILES) | DC50 [nM] |
| --- | --- |
| NC(=O)c1c(-c2ccc(Oc3ccccc3)cc2)nn2c1NCCC2C1CCN(C(=O)CC2CCC(N3CCN(c4ccc5c(c4)C(=O)N(C4CCC(=O)NC4=O)C5=O)CC3)CC2)CC1 (stereo in doubt) [Example 147, (7R)-7-(1-(2-(4-(4-(2-(2,6-dioxopiperidin-3-yl)-1,3-dioxoisoindolin-5-yl)piperazin-1-yl)cyclohexyl)acetyl)piperidin-4-yl)-2-(4-phenoxyphenyl)-4,5,6,7-tetrahydropyrazolo[1,5-a]pyrimidine-3-carboxamide] | 244 |
| NC(=O)c1c(-c2ccc(Oc3ccccc3)cc2)nn2c1NCC[C@H]2C1CCN(C(=O)c2cn(CCOCCCc3cccc4c3CN(C3CCC(=O)NC3=O)C4=O)nn2)CC1 (stereo partly drawn) [Example 1, (7S)-7-(1-(1-(2-(3-(2-(2,6-dioxopiperidin-3-yl)-1-oxoisoindolin-4-yl)propoxy)ethyl)-1H-1,2,3-triazole-4-carbonyl)piperidin-4-yl)-2-(4-phenoxyphenyl)-4,5,6,7-tetrahydropyrazolo[1,5-a]pyrimidine-3-carboxamide] | > 10000 |
| NC(=O)c1c(-c2ccc(Oc3ccccc3)cc2)nn2c1NCC[C@H]2C1CCN(C(=O)c2cn(CCOCCNc3cccc4c3C(=O)N(C3CCC(=O)NC3=O)C4=O)nn2)CC1 (stereo partly drawn) [Example 2, (7S)-7-(1-(1-(2-(2-((2-(2,6-dioxopiperidin-3-yl)-1,3-dioxoisoindolin-4-yl)amino)ethoxy)ethyl)-1H-1,2,3-triazole-4-carbonyl)piperidin-4-yl)-2-(4-phenoxyphenyl)-4,5,6,7-tetrahydropyrazolo[1,5-a]pyrimidine-3-carboxamide] | > 10000 |
| NC(=O)c1c(-c2ccc(Oc3ccccc3)cc2)nn2c1NCC[C@H]2C1CCN(C(=O)c2cn(CCOCCOCCNc3cccc4c3C(=O)N(C3CCC(=O)NC3=O)C4=O)nn2)CC1 (stereo partly drawn) [Example 3, (7S)-7-(1-(1-(2-(2-(2-((2-(2,6-dioxopiperidin-3-yl)-1,3-dioxoisoindolin-4-yl)amino)ethoxy)ethoxy)ethyl)-1H-1,2,3-triazole-4-carbonyl)piperidin-4-yl)-2-(4-phenoxyphenyl)-4,5,6,7-tetrahydropyrazolo[1,5-a]pyrimidine-3-carboxamide] | > 10000 |
| NC(=O)c1c(-c2ccc(Oc3ccccc3)cc2)nn2c1NCC[C@H]2C1CCN(C(=O)c2cn(CCOCCOCC#Cc3cccc4c3CN(C3CCC(=O)NC3=O)C4=O)nn2)CC1 (stereo partly drawn) [Example 4, (7S)-7-(1-(1-(2-(2-((3-(2-(2,6-dioxopiperidin-3-yl)-1-oxoisoindolin-4-yl)prop-2-yn-1-yl)oxy)ethoxy)ethyl)-1H-1,2,3-triazole-4-carbonyl)piperidin-4-yl)-2-(4-phenoxyphenyl)-4,5,6,7-tetrahydropyrazolo[1,5-a]pyrimidine-3-carboxamide] | > 10000 |
| NC(=O)c1c(-c2ccc(Oc3ccccc3)cc2)nn2c1NCC[C@H]2C1CCN(C(=O)c2cn(CCOCCOCCCc3cccc4c3CN(C3CCC(=O)NC3=O)C4=O)nn2)CC1 (stereo partly drawn) [Example 5, (7S)-7-(1-(1-(2-(2-(3-(2-(2,6-dioxopiperidin-3-yl)-1-oxoisoindolin-4-yl)propoxy)ethoxy)ethyl)-1H-1,2,3-triazole-4-carbonyl)piperidin-4-yl)-2-(4-phenoxyphenyl)-4,5,6,7-tetrahydropyrazolo[1,5-a]pyrimidine-3-carboxamide] | > 10000 |
| NC(=O)c1c(-c2ccc(Oc3ccccc3)cc2)nn2c1NCC[C@H]2C1CCN(C(=O)c2cn(CCOCCOCCOCCCc3cccc4c3CN(C3CCC(=O)NC3=O)C4=O)nn2)CC1 (stereo partly drawn) [Example 6, (7S)-7-(1-(1-(2-(2-(2-(3-(2-(2,6-dioxopiperidin-3-yl)-1-oxoisoindolin-4-yl)propoxy)ethoxy)ethoxy)ethyl)-1H-1,2,3-triazole-4-carbonyl)piperidin-4-yl)-2-(4-phenoxyphenyl)-4,5,6,7-tetrahydropyrazolo[1,5-a]pyrimidine-3-carboxamide] | 242 |
| NC(=O)c1c(-c2ccc(Oc3ccccc3)cc2)nn2c1NCC[C@H]2C1CCN(C(=O)c2cn(CCOCCOCCNc3ccc4c(c3)C(=O)N(C3CCC(=O)NC3=O)C4=O)nn2)CC1 (stereo partly drawn) [Example 7, (7S)-7-(1-(1-(2-(2-(2-((2-(2,6-dioxopiperidin-3-yl)-1,3-dioxoisoindolin-5-yl)amino)ethoxy)ethoxy)ethyl)-1H-1,2,3-triazole-4-carbonyl)piperidin-4-yl)-2-(4-phenoxyphenyl)-4,5,6,7-tetrahydropyrazolo[1,5-a]pyrimidine-3-carboxamide] | > 10000 |
| NC(=O)c1c(-c2ccc(Oc3ccccc3)cc2)nn2c1NCC[C@H]2C1CCN(C(=O)c2cn(CCOCCOCCOCCNc3cccc4c3C(=O)N(C3CCC(=O)NC3=O)C4=O)nn2)CC1 (stereo partly drawn) [Example 8, (7S)-7-(1-(1-(2-(2-(2-(2-((2-(2,6-dioxopiperidin-3-yl)-1,3-dioxoisoindolin-4-yl)amino)ethoxy)ethoxy)ethoxy)ethyl)-1H-1,2,3-triazole-4-carbonyl)piperidin-4-yl)-2-(4-phenoxyphenyl)-4,5,6,7-tetrahydropyrazolo[1,5-a]pyrimidine-3-carboxamide] | 128 |
| NC(=O)c1c(-c2ccc(Oc3ccccc3)cc2)nn2c1NCC[C@H]2C1CCN(C(=O)c2cn(CCOCCOCCOCC#Cc3cccc4c3CN(C3CCC(=O)NC3=O)C4=O)nn2)CC1 (stereo partly drawn) [Example 9, (7S)-7-(1-(1-(2-(2-(2-((3-(2-(2,6-dioxopiperidin-3-yl)-1-oxoisoindolin-4-yl)prop-2-yn-1-yl)oxy)ethoxy)ethoxy)ethyl)-1H-1,2,3-triazole-4-carbonyl)piperidin-4-yl)-2-(4-phenoxyphenyl)-4,5,6,7-tetrahydropyrazolo[1,5-a]pyrimidine-3-carboxamide] | > 10000 |
| NC(=O)c1c(-c2ccc(Oc3ccccc3)cc2)nn2c1NCC[C@H]2C1CCN(C(=O)c2cn(CCOCCOCCOCCOCCCc3cccc4c3CN(C3CCC(=O)NC3=O)C4=O)nn2)CC1 (stereo partly drawn) [Example 10, (7S)-7-(1-(1-(15-(2-(2,6-dioxopiperidin-3-yl)-1-oxoisoindolin-4-yl)-3,6,9, 12-tetraoxapentadecyl)-1H-1,2,3-triazole-4-carbonyl)piperidin-4-yl)-2-(4-phenoxyphenyl)-4,5,6,7-tetrahydropyrazolo[1,5-a]pyrimidine-3-carboxamide] | > 10000 |
| NC(=O)c1c(-c2ccc(Oc3ccccc3)cc2)nn2c1NCC[C@H]2C1CCN(C(=O)c2cn(CCOCCOCCOCCOCC#Cc3cccc4c3CN(C3CCC(=O)NC3=O)C4=O)nn2)CC1 (stereo partly drawn) [Example 11, (7S)-7-(1-(1-(15-(2-(2,6-dioxopiperidin-3-yl)-1-oxoisoindolin-4-yl)-3,6,9, 12-tetraoxapentadec-14-yn-1-yl)-1H-1,2,3-triazole-4-carbonyl)piperidin-4-yl)-2-(4-phenoxyphenyl)-4,5,6,7-tetrahydropyrazolo[1,5-a]pyrimidine-3-carboxamide] | 176 |
| NC(=O)c1c(-c2ccc(Oc3ccccc3)cc2)nn2c1NCC[C@H]2C1CCN(C(=O)c2cn(CCOCCOCCOCCOCCNc3ccc4c(c3)C(=O)N(C3CCC(=O)NC3=O)C4=O)nn2)CC1 (stereo partly drawn) [Example 12, (7S)-7-(1-(1-(14-((2-(2,6-dioxopiperidin-3-yl)-1,3-dioxoisoindolin-5-yl)amino)-3,6,9, 12-tetraoxatetradecyl)-1H-1,2,3-triazole-4-carbonyl)piperidin-4-yl)-2-(4-phenoxyphenyl)-4,5,6,7-tetrahydropyrazolo[1,5-a]pyrimidine-3-carboxamide] | > 10000 |
| NC(=O)c1c(-c2ccc(Oc3ccccc3)cc2)nn2c1NCC[C@H]2C1CCN(C(=O)c2cn(CCOCCOCCOCCOCCOCCNc3ccc4c(c3)C(=O)N(C3CCC(=O)NC3=O)C4=O)nn2)CC1 (stereo partly drawn) [Example 14, (7S)-7-(1-(1-(17-((2-(2,6-dioxopiperidin-3-yl)-1,3-dioxoisoindolin-5-yl)amino)-3,6,9, 12, 15-pentaoxaheptadecyl)-1H-1,2,3-triazole-4-carbonyl)piperidin-4-yl)-2-(4-phenoxyphenyl)-4,5,6,7-tetrahydropyrazolo[1,5-a]pyrimidine-3-carboxamide] | 78 |
| NC(=O)c1c(-c2ccc(Oc3ccccc3)cc2)nn2c1NCC[C@H]2C1CCN(C(=O)c2cn(CCOCCOCCOCCOCCOCCNc3cccc4c3C(=O)N(C3CCC(=O)NC3=O)C4=O)nn2)CC1 (stereo partly drawn) [Example 15, (7S)-7-(1-(1-(17-((2-(2,6-dioxopiperidin-3-yl)-1,3-dioxoisoindolin-4-yl)amino)-3,6,9, 12, 15-pentaoxaheptadecyl)-1H-1,2,3-triazole-4-carbonyl)piperidin-4-yl)-2-(4-phenoxyphenyl)-4,5,6,7-tetrahydropyrazolo[1,5-a]pyrimidine-3-carboxamide] | 78 |
| NC(=O)c1c(-c2ccc(Oc3ccccc3)cc2)nn2c1NCC[C@H]2C1CCN(C(=O)c2cn(CCOCCOCCOCCOCCOCCOCCNc3cccc4c3C(=O)N(C3CCC(=O)NC3=O)C4=O)nn2)CC1 (stereo partly drawn) [Example 16, (7S)-7-(1-(1-(20-((2-(2,6-dioxopiperidin-3-yl)-1,3-dioxoisoindolin-4-yl)amino)-3,6,9, 12, 15, 18-hexaoxaicosyl)-1H-1,2,3-triazole-4-carbonyl)piperidin-4-yl)-2-(4-phenoxyphenyl)-4,5,6,7-tetrahydropyrazolo[1,5-a]pyrimidine-3-carboxamide] | 107 |
